According to patent US4522824A, “Indole derivatives of tryptamine and cardiovascular compositions thereof” (Sanofi, priority 1982, dated 1985):
Counter-ions that a name gives are not always drawn.

Tests used:
β-adrenergic receptors = test: Antagonism of the effects of isoprenaline (tachycardia) in the anaesthetized dog; type: in vivo; conditions: dose inhibiting 80% of the tachycardia induced by i.v. isoprenaline, intravenous
Description: (§1) In vivo pharmacological action in the dog
(§2) The dog is anaesthetized with sodium pentobarbital, administered by the intravenous route at the dose of 30 mg/kg. A cannula placed in the short saphenous vein allows the products to be injected intravenously. The animal is intubated and allowed to breathe spontaneously.
(§3) The cardiac frequency (C.F.) and the systemic arterial pressure (A.P.) and the parameter (dP/dt)p^-1 max which expresses the cardiac contractibility are recorded with the aid of catheters and the variations in these parameters are measured after intravenous injection of the product to be tested, each product being tested at increasing doses.
Antagonism of the effects of isoprenaline
The antagonism of the products with respect to the stimulating cardiovascular effects of isoprenaline on the β-adrenergic receptors was sought. The results are shown in Table II hereinafter and expressed in ID80 : this is the dose expressed in mg/kg which provokes inhibition of 80% of the tachycardia induced by the isoprenaline administered by the intravenous route.

[1] = In vivo pharmacological action in the anaesthetized dog (cardiac frequency, systemic arterial pressure, cardiac contractibility); conditions: Table II, parameter name is in the drawing [drawing 9], intravenous; for direct effect: first sign; for direct effect, [drawing 9]: second sign (wrapped to next line)
Description: as §1, §2, §3

[2] = Chronotropic effect in the dog subjected to reserpine and anaesthetized; type: in vivo; conditions: 1 mg/kg intravenous
α-adrenergic receptors = test: Antagonism of the effects of noradrenaline (pressive response) in the dog; type: in vivo; conditions: dose inhibiting 50% of the pressive response to i.v. noradrenaline
Description: as §1, §2, §3
Antagonism of the effects of noradrenaline
The antagonism of the products with respect to the vascular effects provoked by the intravenous administration of noradrenaline on the α-adrenergic receptors was sought. The results shown in Table II are expressed in ID50 : this is the dose (mg/kg) which provokes the inhibition of 50% of the pressive response due to the intravenous administration of noradrenaline.

[3] = Cardiac frequency in the alert dog after oral administration; type: in vivo
Text: The different results on the cardiovascular system obtained in the anaesthetized dog have been confirmed for certain products in the alert dog after administration of the product by the oral route.

In the case of `CCOC(=O)c1cc2c(OCC(O)CNC(C)Cc3c[nH]c4ccccc34)cccc2[nH]1` (racemic) [SR41294A], the “ID80 isoprenaline, β-effect” value (β-adrenergic receptors) is reported as 0.1 mg/kg, the “direct effect” value [1] is reported as “.dwnarw” and the “direct effect, [drawing 9]” value [1] is reported as “.dwnarw”.
For `CCOC(=O)c1cc2c(OCC(O)CNC(C)(C)Cc3c[nH]c4ccccc34)cccc2[nH]1` (stereo not drawn) [CM40593, 4-[3-[2-(3-indolyl)1,1-dimethylethylamino]2-hydroxypropoxy]2-ethoxycarbonyl indole], the chronotropic effect [2] was “slight positive chronotropic effect”, the “ID80 isoprenaline, β-effect” value (β-adrenergic receptors) was 0.1 mg/kg and the ID50 (α-adrenergic receptors) was 0.1 mg/kg. For the same molecule, the “direct effect” value [1] was “= or .dwnarw” and the “direct effect, [drawing 9]” value [1] was “.uparw”.
For `CC(C)(Cc1c[nH]c2ccccc12)NCC(O)COc1cccc2[nH]c(C(N)=O)cc12` (stereo not drawn) [CM41105], the “ID80 isoprenaline, β-effect” value (β-adrenergic receptors) was 0.1 mg/kg, the “direct effect” value [1] was “weak .dwnarw” and the “direct effect, [drawing 9]” value [1] was “.uparw”.
In the case of `CC(C)(Cc1c[nH]c2ccccc12)NCC(O)COc1cccc2[nH]c(CO)cc12` (stereo not drawn) [CM41165], the “ID80 isoprenaline, β-effect” value (β-adrenergic receptors) is reported as 0.05 mg/kg, the “direct effect” value [1] is reported as “.dwnarw” and the “direct effect, [drawing 9]” value [1] is reported as “.dwnarw”.
For `CC(C)(Cc1c[nH]c2ccccc12)NCC(O)COc1cccc2[nH]c(C#N)cc12` (stereo not drawn) [SR41370A], the “ID80 isoprenaline, β-effect” value (β-adrenergic receptors) was 0.05 mg/kg, the “direct effect” value [1] was “weak .dwnarw” and the “direct effect, [drawing 9]” value [1] was “.uparw”.
With `CCOC(=O)c1cc2c(OCC(O)CNC(C)(C)Cc3c[nH]c4ccc(OC)cc34)cccc2[nH]1` (stereo not drawn) [SR41648] the “ID80 isoprenaline, β-effect” value (β-adrenergic receptors) was 0.1 mg/kg, the “direct effect” value [1] was “.dwnarw” and the “direct effect, [drawing 9]” value [1] was “.dwnarw”.
For `CCOC(=O)c1cc2c(OCC(O)CNC(C)(C)Cc3c[nH]c4ccc(C)cc34)cccc2[nH]1` (stereo not drawn) [SR41716A], the “effect on cardiac frequency” value [3] was “decrease the cardiac frequency or are without action thereon”.
With `CC(C)OC(=O)c1cc2c(OCC(O)CNC(C)(C)Cc3c[nH]c4ccccc34)cccc2[nH]1` (stereo not drawn) [SR41719A] the “effect on cardiac frequency” value [3] was “decrease the cardiac frequency or are without action thereon”.
In the case of `CCOC(=O)c1cc2c(OCC(O)CNC(C)(C)Cc3c[nH]c4ccc(F)cc34)cccc2[nH]1` (stereo not drawn) [SR41779A], the “effect on cardiac frequency” value [3] is reported as “decrease the cardiac frequency or are without action thereon”.
For `CCOC(=O)c1cc2c(OCC(O)CNC(C)(C)Cc3c[nH]c4ccc(Cl)cc34)cccc2[nH]1` (stereo not drawn) [SR41780A], the “effect on cardiac frequency” value [3] was “decrease the cardiac frequency or are without action thereon”.
In the case of `CC(C)(Cc1c[nH]c2ccccc12)NCC(O)COc1cccc2[nH]c(C(=O)O)cc12` (stereo not drawn) [SR41828A], the “ID80 isoprenaline, β-effect” value (β-adrenergic receptors) is reported as 0.3 mg/kg, the “effect on cardiac frequency” value [3] is reported as “decrease the cardiac frequency or are without action thereon” and the “direct effect” value [1] is reported as “= or .dwnarw”. The “direct effect, [drawing 9]” value [1] was “=”.
With `CCCCN(CCCC)C(=O)c1cc2c(OCC(O)CNC(C)(C)Cc3c[nH]c4ccccc34)cccc2[nH]1` (stereo not drawn) [SR41830A] the “ID80 isoprenaline, β-effect” value (β-adrenergic receptors) was 1 mg/kg and the “direct effect, [drawing 9]” value [1] was “.uparw”.
In the case of `CCOC(=O)c1cc2c(OCC(O)CNC(C)(C)Cc3c[nH]c4ccc(C#N)cc34)cccc2[nH]1` (stereo not drawn) [SR41831A, 4-[3-[(5-cyano 3-indolyl)1,1-dimethylethylamino]2-hydroxypropoxy]2-ethoxycarbonyl indole, neutral fumarate], the “ID80 isoprenaline, β-effect” value (β-adrenergic receptors) is reported as 0.1 mg/kg, the “direct effect” value [1] is reported as “.dwnarw” and the “direct effect, [drawing 9]” value [1] is reported as “.dwnarw”.
In the case of `CCOC(=O)c1cc2c(OCC(O)CNC(C)(CO)Cc3c[nH]c4ccccc34)cccc2[nH]1` (stereo not drawn) [SR41832], the “ID80 isoprenaline, β-effect” value (β-adrenergic receptors) is reported as 0.1 mg/kg, the “direct effect” value [1] is reported as “.dwnarw” and the “direct effect, [drawing 9]” value [1] is reported as “.dwnarw”.
